Experimental findings from paper PMC13266984 (Journal of medicinal chemistry, 2026) are described below.

In one experiment the target is T1, OE19 (3A1) (Homo sapiens, UniProt P30838).
T1 sequence (P30838 1-453): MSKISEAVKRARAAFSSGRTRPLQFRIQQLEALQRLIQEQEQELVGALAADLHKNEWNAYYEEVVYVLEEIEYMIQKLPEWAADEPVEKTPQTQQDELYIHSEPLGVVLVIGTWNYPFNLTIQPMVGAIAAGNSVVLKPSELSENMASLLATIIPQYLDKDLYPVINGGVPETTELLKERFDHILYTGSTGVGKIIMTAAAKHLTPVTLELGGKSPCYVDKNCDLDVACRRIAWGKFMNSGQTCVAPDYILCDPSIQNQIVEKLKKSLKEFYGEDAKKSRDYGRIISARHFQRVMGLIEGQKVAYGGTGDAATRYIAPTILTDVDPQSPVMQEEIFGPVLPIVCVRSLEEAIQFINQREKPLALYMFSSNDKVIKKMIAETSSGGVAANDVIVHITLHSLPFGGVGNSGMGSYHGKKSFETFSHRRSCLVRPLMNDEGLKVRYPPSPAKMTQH
The experiment in a line: Cellular ALDEFLUOR assay in OE19 cells (preferential ALDH3A1 expression). The conditions noted are these: for Cell_Efficacy: Table S4, OE19 cells; for Cell_CC-v2: Table S4, cellular curve class.

A further experiment concerns the target T2, Human ALDH3A1 (Homo sapiens, UniProt P30838).
T2 sequence (P30838 1-453): T1 sequence (P30838 1-453)
As to the kind of experiment: ALDH3A1 biochemical assay (benzaldehyde/NADP+, diaphorase-resazurin readout, 1,536-well). The conditions noted are these: for Efficacy: Table S4, biochemical; for CC-v2: Table S4, biochemical curve class.

At OE19 (3A1), `Cc1cccc(CNC(=O)c2csc(N3CCN(c4cccc([S+](C)(=O)[O-])c4)CC3)n2)c1` [NCGC01210723-01] had an AC50 of 1240 nM, a Cell_Efficacy of -75.10 and a Cell_CC-v2 of -1.2. On Human ALDH3A1, this compound came in with an AC50 of 3640 nM, an Efficacy of -72.64 and a CC-v2 of -1.2.
For the compound `Cc1cccc(CNC(=O)c2csc(N3CCN(c4cccc([S+](=O)([O-])C(F)(F)F)c4)CC3)n2)c1` [NCGC01210726-01], at OE19 (3A1), the activity was half-maximal at 15700 nM (AC50), the Cell_Efficacy was -81.37 and the Cell_CC-v2 is on record as -1.2. Besides, at Human ALDH3A1, the half-maximal activity concentration (AC50) was 18200 nM, the Efficacy is on record as -54.32 and the CC-v2 is listed as -1.2.
For `COc1ccccc1N1CCN(c2nc(C(=O)NCc3cccc(C)c3)cs2)CC1` [NCGC01210996-01], on OE19 (3A1), the AC50 is 50 nM, the Cell_Efficacy was -98.32 and the Cell_CC-v2 was -1.3. For the same compound, at Human ALDH3A1, the AC50 was 910 nM, the Efficacy is on record as -91.28 and the CC-v2 is -1.1.
For the compound `Cc1cccc(CNC(=O)c2csc(N3CCN(c4cccc(OCc5ccc(Cl)cc5)c4)CC3)n2)c1` [NCGC01211114-01], on OE19 (3A1), the AC50 stood at 1570 nM, the Cell_Efficacy is -79.67 and the Cell_CC-v2 was -1.1. In addition, on Human ALDH3A1, the AC50 was determined as 460 nM, the Efficacy is given as -48.74 and the CC-v2 is -1.2.
Take `COC(=O)c1ccc(N2CCN(c3nc(C(=O)NCc4cccc(C)c4)cs3)CC2)cc1` [NCGC01211115-01]: on OE19 (3A1), the activity was half-maximal at 990 nM (AC50), the Cell_Efficacy is on record as -81.24 and the Cell_CC-v2 is listed as -1.1. Also, on Human ALDH3A1, half-maximal activity (AC50) was put at 1290 nM, the Efficacy is reported as -72.39 and the CC-v2 was -1.2.
On to `Cc1cccc(CNC(=O)c2csc(N3CCN(c4cccc(O)c4)CC3)n2)c1` [NCGC01211119-01], for which, at OE19 (3A1), the AC50 was determined as 15700 nM, the Cell_Efficacy is reported as -77.14 and the Cell_CC-v2 is recorded as -1.2. At Human ALDH3A1, the activity was half-maximal at 2570 nM (AC50), the Efficacy is -61.43 and the CC-v2 is reported as -1.2.
At OE19 (3A1), `Cc1cccc(CNC(=O)c2csc(N3CCN(c4ccc(Cl)c(Cl)c4)CC3)n2)c1` [NCGC01211120-01] came in with an AC50 of 790 nM, a Cell_Efficacy of -88.59 and a Cell_CC-v2 of -1.1. Also, at Human ALDH3A1, half-maximal activity (AC50) was put at 510 nM, the Efficacy is -83.25 and the CC-v2 is reported as -1.1.
As to `Cc1cccc(CNC(=O)c2csc(N3CCN(c4ccccc4Cl)CC3)n2)c1` [NCGC01211121-01], on OE19 (3A1), half-maximal activity (AC50) was put at 12400 nM, the Cell_Efficacy is on record as -81.66 and the Cell_CC-v2 is on record as -1.3. On Human ALDH3A1, this compound had an AC50 of 910 nM, an Efficacy of -88.53 and a CC-v2 of -1.1.
At OE19 (3A1), `COc1c(F)cc(N2CCN(c3nc(C(=O)NCc4cccc(C)c4)cs3)CC2)cc1F` [NCGC01211123-01] showed an AC50 of 1760 nM, a Cell_Efficacy of -94.45 and a Cell_CC-v2 of -1.2. For the same compound, on Human ALDH3A1, the AC50 is 580 nM, the Efficacy is given as -77.80 and the CC-v2 is listed as -1.2.
As for `Cc1cccc(CNC(=O)c2csc(N3CCN(c4ccc(O)cc4)CC3)n2)c1` [NCGC01211126-01], on OE19 (3A1), the AC50 was found to be 15700 nM, the Cell_Efficacy is reported as -68.34 and the Cell_CC-v2 is listed as -1.2. On Human ALDH3A1, this compound returned a half-maximal activity concentration (AC50) of 5760 nM, an Efficacy of -62.10 and a CC-v2 of -1.2.
At OE19 (3A1), `Cc1cccc(CNC(=O)c2csc(N3CCN(c4ccccc4F)CC3)n2)c1` [NCGC01211127-01] registered a half-maximal activity concentration (AC50) of 4950 nM, a Cell_Efficacy of -89.89 and a Cell_CC-v2 of -1.1. At Human ALDH3A1, this compound gave an AC50 of 1020 nM, an Efficacy of -98.80 and a CC-v2 of -1.1.
In the case of `CCc1ccc(N2CCN(c3nc(C(=O)NCc4cccc(C)c4)cs3)CC2)cc1` [NCGC01211128-01], at OE19 (3A1), the activity was half-maximal at 3130 nM (AC50), the Cell_Efficacy is given as -86.59 and the Cell_CC-v2 is -1.1. Besides, at Human ALDH3A1, the concentration at half-maximal activity (AC50) turned out to be 910 nM, the Efficacy was -85.15 and the CC-v2 is given as -1.1.
Take `Cc1cccc(CNC(=O)c2csc(N3CCN(c4c(Cl)cccc4Cl)CC3)n2)c1` [NCGC01211131-01]: on OE19 (3A1), the AC50 came to 3130 nM, the Cell_Efficacy was -61.19 and the Cell_CC-v2 is given as -1.4. Moreover, at Human ALDH3A1, the AC50 worked out at 510 nM, the Efficacy was -89.06 and the CC-v2 is recorded as -1.1.
Regarding `Cc1cccc(CNC(=O)c2csc(N3CCN(c4cc(F)cc(F)c4)CC3)n2)c1` [NCGC01211133-01], at OE19 (3A1), the activity was half-maximal at 1570 nM (AC50), the Cell_Efficacy is given as -95.95 and the Cell_CC-v2 is -1.1. At Human ALDH3A1, this compound gave an AC50 of 650 nM, an Efficacy of -87.41 and a CC-v2 of -1.1.
As to `Cc1cccc(CNC(=O)c2csc(N3CCN(c4ccccc4C)CC3)n2)c1` [NCGC01211138-01], at OE19 (3A1), the AC50 came to 7850 nM, the Cell_Efficacy is -88.54 and the Cell_CC-v2 is recorded as -1.1. On Human ALDH3A1, this compound showed an AC50 of 1450 nM, an Efficacy of -88.86 and a CC-v2 of -1.1.
On OE19 (3A1), `Cc1cccc(CNC(=O)c2csc(N3CCN(c4ccc(Br)cc4)CC3)n2)c1` [NCGC01211165-01] registered an AC50 of 700 nM, a Cell_Efficacy of -91.24 and a Cell_CC-v2 of -1.1. On Human ALDH3A1, the AC50 was found to be 810 nM, the Efficacy is recorded as -72.77 and the CC-v2 was -1.2.
With `Cc1cccc(CNC(=O)c2csc(N3CCN(c4ccc([S+](=O)([O-])F)cc4)CC3)n2)c1` [NCGC01211171-01], on OE19 (3A1), half-maximal activity (AC50) was put at 1970 nM, the Cell_Efficacy was -83.98 and the Cell_CC-v2 was -1.1. Further, at Human ALDH3A1, the activity was half-maximal at 1150 nM (AC50), the Efficacy was -53.27 and the CC-v2 is -1.2.
On OE19 (3A1), `Cc1cccc(CNC(=O)c2csc(N3CCN(c4ccc(OCCF)cc4)CC3)n2)c1` [NCGC01211173-01] displayed an AC50 of 1400 nM, a Cell_Efficacy of -87.33 and a Cell_CC-v2 of -1.1. At Human ALDH3A1, this compound displayed an AC50 of 3240 nM, an Efficacy of -45.43 and a CC-v2 of -1.2.
On OE19 (3A1), `COc1ccc(N2CCN(c3nc(C(=O)NCc4cccc(C)c4)cs3)CC2)c(OC)c1` [NCGC01211174-01] showed an AC50 of 8810 nM, a Cell_Efficacy of -87.39 and a Cell_CC-v2 of -1.1. Besides, at Human ALDH3A1, the AC50 came out at 1150 nM, the Efficacy is -66.83 and the CC-v2 was -1.2.
For `Cc1cccc(CNC(=O)c2csc(N3CCN(c4cccc(Sc5ccc(C)cc5C)c4)CC3)n2)c1` [NCGC01211184-01], on OE19 (3A1), half-maximal activity (AC50) was put at 310 nM, the Cell_Efficacy was -95.63 and the Cell_CC-v2 is -1.1. Besides, at Human ALDH3A1, the Efficacy was -26.97 and the CC-v2 was determined as 4.
